{"source": "paper PMC5000617", "about": "“Antiproliferative and Pro-Apoptotic Effect of Novel Nitro-Substituted Hydroxynaphthanilides on Human Cancer Cell Lines” (International Journal of Molecular Sciences, 2016)", "key": {"[1]": {"test_system": "THP-1 cells", "assay": "WST-1 cell proliferation assay, THP-1", "assay_type": "cell-based, human", "experimental": "(§1) Initially, we examined the effect of six nitro-substituted hydroxynaphthanilides on the proliferation of human leukaemia and breast carcinoma cell lines, using Water Soluble Tetrazolium Salts-1 (WST-1) assay. For such analyses, THP-1 and MCF-7 cells were treated with the compounds at concentrations ranging from 0.5 to 20 μM for 24 h. […] The inhibitory effect of 2 and 6 was statistically significant (p < 0.001) starting from the concentration of 2.5 and 5 μM in THP-1 and MCF-7 cells, respectively. From the concentration-response curves, the IC50 values were determined.\n(§2) THP-1 human monocytic leukemia cell line, MCF-7 human breast adenocarcinoma cells and 3T3-L1 mouse embryonic fibroblast were purchased from the European Collection of Cell Cultures (ECACC, Salisbury, UK). Cells were routinely tested for the absence of mycoplasma (Hoechst 33258 staining method). THP-1 cells were maintained in RPMI 1640 culture medium containing 2 mM L-glutamine; MCF-7 and 3T3-L1 cells were cultured in DMEM medium. All of the culture media were supplemented with 10% heat-inactivated FBS and antibiotics (100 U/mL penicillin and 100 μg/mL streptomycin). Cells were maintained at 37 °C in a humidified atmosphere containing 5% CO2.\n(§3) Cell proliferation was evaluated using Cell Proliferation Reagent WST-1 (2-(4-iodophenyl)-3-(4-nitrophenyl)-5-(2,4-disulfophenyl)-2H-tetrazolium) (Roche Diagnostics, Mannheim, Germany) according to the manufacturer´s instructions. THP-1 (5 × 10^4 cells/100 μL culture medium per well), MCF-7 cells (1 × 10^4 cells/100 μL per well), and 3T3-L1 (2.5 × 10^3 cells/100 μL per well) were cultured in 96-well plates in triplicate. The measurement was performed using Synergy 2 Multi-Mode Microplate Reader (BioTek, Winooski, VT, USA) after 24 h incubation of cells with tested compounds dissolved in DMSO and subsequently in RPMI 1640 to final concentration ranging 0.5–20 μM in the assays. Cell viability was assessed by dye exclusion test. THP-1 (2 × 10^5 cells/mL per well) and MCF-7 cells (8 × 10^4 cells/mL per well) were incubated in 24-well plates with the indicated concentrations of compounds for 24 h. The number of viable cells was determined using hemocytometer after their staining with a solution of erythrosin B (0.1% erythrosin B (w/v) in PBS). The assays were conducted in triplicate. The IC50 and LC50 values were calculated from fitted concentration-response curves using GraphPad Prism 5.00 software (GraphPad Software, San Diego, CA, USA)."}, "[2]": {"test_system": "MCF-7 cells", "assay": "WST-1 cell proliferation assay, MCF-7", "assay_type": "cell-based, human", "experimental": "as §1, §2, §3"}, "[3]": {"test_system": "3T3-L1 cells", "assay": "WST-1 cell proliferation assay, 3T3-L1 non-tumour cells", "assay_type": "cell-based, mouse", "experimental": "as §2, §3"}, "[4]": {"test_system": "THP-1 cells", "assay": "Erythrosin B dye exclusion viability test, THP-1", "assay_type": "cell-based", "experimental": "Subsequently, for the comparison of the antiproliferative and cytotoxic effects we assessed the cell viability after 24 h treatment with compounds 1–6 in both tumour cell lines using the dye exclusion test.\nas §2, §3"}, "[5]": {"assay": "Annexin V-FITC/PI apoptosis assay by flow cytometry, THP-1", "assay_type": "cell-based, human", "conditions": "human, THP-1 cells, representative dot plot, read-out: quadrant I: viable cells", "experimental": "(§4) Staining of cells by Annexin V-FITC conjugate reflects the externalization of phosphatidylserine on the outer surface of the cell membrane as one of the early indicators of apoptosis.\n(§5) Early and late stages of apoptosis were detected using Annexin V-FITC Kit—Apoptosis Detection Kit faccording to the manufacturer´s instructions. […] At each time-point of incubation (12, 18, and 24 h) the cells were washed with ice-cold PBS prior to being resuspended at a concentration of 5 × 10^6 cells/mL in a total volume of 100 μL of 1× binding buffer. Annexin V-FITC solution (final concentration 0.25 μg/mL) and PI (final concentration 12.5 μg/mL) were added to each sample; the cell suspension was kept on ice and incubated for 15 min in the dark. After that, the analysis was carried out by flow cytometry. The data were evaluated using Kaluza Flow Cytometry Analysis 1.2. Per sample, a total number of 2 × 10^4 cells were analysed."}, "[6]": {"test_system": "THP-1 cells", "assay": "Annexin V-FITC/PI apoptosis assay by flow cytometry, THP-1", "assay_type": "cell-based, human", "experimental": "as §4, §5"}, "[7]": {"test_system": "cyclin B1", "assay": "Western blot of cyclin B1 in THP-1 cells", "assay_type": "cell-based, human", "conditions": "THP-1, 24 h", "experimental": "Additionally, the cell cycle analysis allows determining the presence of a subdiploid cell population as a characteristic marker of cells with fractional DNA content. A significant increase (p < 0.001) of the sub-G1 peak was found only after the treatment with 5 µM of compound 2 in THP-1 cells, where an approximately eight-fold increase was observed compared to the drug-free control (Figure 4).\n(§6) For Western blotting, cells were washed with PBS and lysed in lysis buffer (100 mM Tris-HCl, pH = 6.8; 20% glycerol; 1% SDS) containing protease and phosphatase inhibitor cocktails. Protein concentration was measured using Roti®-Quant universal (Carl Roth, Karsruhe, Germany) according to the manufacturer’s instructions. Cell lysates were supplemented with bromophenol blue (final concentration 0.01% (w/v)) and β-mercaptoethanol (final concentration 1% (v/v)) prior to being heated for 5 min at 95 °C. Equal amounts of protein (10 μg) were loaded into a 12% polyacrylamide gel, separated by SDS-polyacrylamide gel electrophoresis and subsequently electrotransferred onto nitrocellulose membranes. Reversible Ponceau S. staining was performed to assess equal sample loading. […] The intensity of bands was semi-quantitatively analysed using the ImageJ software (National Institute of Mental Health, Bethesda, MD, USA)."}, "[8]": {"test_system": "caspase 9", "assay": "Western blot of caspase 9 in THP-1 cells", "assay_type": "cell-based, human", "conditions": "THP-1, 24 h, most pronounced at 10 μM", "experimental": "(§7) Most of the apoptotic signalling pathways are controlled by caspases that belong to a group of cysteine proteases. To assess whether compound 2 affects these signalling cascades and which pathway is activated (intrinsic or extrinsic), the activities of caspase 3, caspase 9, and caspase 8 were evaluated using Western blot analysis.\nas §6"}, "[9]": {"test_system": "caspase 8", "assay": "Western blot of caspase 8 in THP-1 cells", "assay_type": "cell-based, human", "conditions": "THP-1, 24 h", "experimental": "as §7, §6"}}}
{"molecule": "O=C(Nc1cccc([N+](=O)[O-])c1)c1cc2ccccc2cc1O", "note": "[Compound 2, 3-hydroxy-N-(3-nitrophenyl)naphthalene-2-carboxamide]", "values": [{"measurement": "IC50", "setting": "[1]; Homo sapiens, THP-1, WST-1, 24 h, 0.5-20 μM, mean ± SD", "value": "3.06 ± 0.206", "unit": "µM"}, {"measurement": "effect on cell proliferation", "setting": "[1]; THP-1, 0.5-20 μM, 24 h", "value": "inhibit cell growth in both cell lines in a dose-dependent manner"}, {"measurement": "concentration from which the inhibitory effect on proliferation was statistically significant (p < 0.001)", "setting": "[1]; THP-1, 24 h", "value": 2.5, "unit": "µM"}, {"measurement": "IC50", "setting": "[2]; Homo sapiens, MCF7, WST-1, 24 h, 0.5-20 μM, mean ± SD", "value": "4.61 ± 0.068", "unit": "µM"}, {"measurement": "effect on cell proliferation", "setting": "[2]; MCF-7, 0.5-20 μM, 24 h", "value": "inhibit cell growth in both cell lines in a dose-dependent manner"}, {"measurement": "concentration from which the inhibitory effect on proliferation was statistically significant (p < 0.001)", "setting": "[2]; MCF-7, 24 h", "value": 5, "unit": "µM"}, {"measurement": "effect on cell proliferation", "setting": "[3]; 3T3-L1, 24 h", "value": "did not decrease cell growth at any of concentrations used"}, {"measurement": "IC50", "setting": "[3]; Mus musculus, 3T3-L1, WST-1, 24 h, non-tumour cells, mean ± SD", "value": "> 20", "unit": "µM"}, {"measurement": "LC50 compared to IC50", "setting": "[4]", "value": "2–3 fold"}, {"measurement": "viability at 12 h, 2.5 µM", "setting": "[5]; THP-1, 2.5 μM, 12 h", "value": 92.1, "unit": "%"}, {"measurement": "viability at 18 h, 2.5 µM", "setting": "[5]; THP-1, 2.5 μM, 18 h", "value": 90.2, "unit": "%"}, {"measurement": "viability at 24 h, 2.5 µM", "setting": "[5]; THP-1, 2.5 μM, 24 h", "value": 87.8, "unit": "%"}, {"measurement": "viability at 12 h, 5 µM", "setting": "[5]; THP-1, 5 μM, 12 h", "value": 85.8, "unit": "%"}, {"measurement": "viability at 18 h, 5 µM", "setting": "[5]; THP-1, 5 μM, 18 h", "value": 76.7, "unit": "%"}, {"measurement": "viability at 24 h, 5 µM", "setting": "[5]; THP-1, 5 μM, 24 h", "value": 75.7, "unit": "%"}, {"measurement": "viability at 12 h, 10 µM", "setting": "[5]; THP-1, 10 μM, 12 h", "value": 64.9, "unit": "%"}, {"measurement": "viability at 18 h, 10 µM", "setting": "[5]; THP-1, 10 μM, 18 h", "value": 57.2, "unit": "%"}, {"measurement": "viability at 24 h, 10 µM", "setting": "[5]; THP-1, 10 μM, 24 h", "value": 44.6, "unit": "%"}, {"measurement": "double-stained (late apoptotic/secondary necrotic) cells", "setting": "[6]; THP-1, 10 µM, 12 h, mean", "value": 22.48, "unit": "%"}, {"measurement": "proportion of early apoptotic cells", "setting": "[6]; THP-1, 10 µM, 12 h, mean, control 2.41%", "value": 9.37, "unit": "%"}, {"measurement": "double-stained (late apoptotic/secondary necrotic) cells", "setting": "[6]; THP-1, 10 µM, 24 h, mean", "value": 41.88, "unit": "%"}, {"measurement": "pro-apoptotic effect", "setting": "[6]; THP-1, 2.5, 5, 10 µM, 12, 18, 24 h", "value": "induced a dose-dependent increase of the percentage of early apoptotic as well as late apoptotic/secondary necrotic"}, {"measurement": "total protein levels of cyclin B1", "setting": "[7]", "value": "total protein levels of cyclin B1 were not changed"}, {"measurement": "cleaved caspase 9 levels", "setting": "[8]", "value": "significant increase of cleaved caspase 9 levels"}, {"measurement": "level of active caspase 8", "setting": "[9]", "value": "level of active caspase 8 was not altered"}]}
